Measured values as given in ChEMBL document CHEMBL3046186, “Identification of ZINC02765569: a potent inhibitor of PTP1B by vHTS” (2013).

Tests used:
Rattus norvegicus [1] = assay: Antihyperglycemic activity in sucrose-challenged streptozotocin-induced Rattus norvegicus Wistar albino (rat) diabetic model assessed as glucose reduction at 30 mg/kg measured at 24 hr relative to control; assay type: functional; set-up: scale not given: the % may be the effect or the level left
[2] = biological target: T1, Tyrosine-protein phosphatase non-receptor type 1 (Homo sapiens) (UniProt P18031); assay: Inhibition of Homo sapiens (human) recombinant PTP1B at 10 uM relative to control
T1 sequence (whole entry): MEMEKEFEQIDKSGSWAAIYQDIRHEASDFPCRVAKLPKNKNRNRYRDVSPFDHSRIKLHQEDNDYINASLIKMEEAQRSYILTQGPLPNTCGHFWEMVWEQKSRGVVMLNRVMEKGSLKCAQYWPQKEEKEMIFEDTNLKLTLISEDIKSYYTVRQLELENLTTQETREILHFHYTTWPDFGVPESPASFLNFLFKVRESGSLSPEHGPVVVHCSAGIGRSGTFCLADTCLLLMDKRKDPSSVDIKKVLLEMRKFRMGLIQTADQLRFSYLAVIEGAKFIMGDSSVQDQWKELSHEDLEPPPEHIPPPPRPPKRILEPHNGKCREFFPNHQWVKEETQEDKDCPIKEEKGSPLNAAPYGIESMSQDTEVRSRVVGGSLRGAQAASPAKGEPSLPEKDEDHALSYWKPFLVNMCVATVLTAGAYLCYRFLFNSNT

[3] = biological target: T2, Tyrosine-protein phosphatase non-receptor type 1 (Rattus norvegicus) (UniProt P20417); assay: Ratio of rosiglitazone activity to compound activity for inhibition of PTP1B in Rattus norvegicus (rat) L6 cells; assay type: cell-based
T2 sequence (whole entry): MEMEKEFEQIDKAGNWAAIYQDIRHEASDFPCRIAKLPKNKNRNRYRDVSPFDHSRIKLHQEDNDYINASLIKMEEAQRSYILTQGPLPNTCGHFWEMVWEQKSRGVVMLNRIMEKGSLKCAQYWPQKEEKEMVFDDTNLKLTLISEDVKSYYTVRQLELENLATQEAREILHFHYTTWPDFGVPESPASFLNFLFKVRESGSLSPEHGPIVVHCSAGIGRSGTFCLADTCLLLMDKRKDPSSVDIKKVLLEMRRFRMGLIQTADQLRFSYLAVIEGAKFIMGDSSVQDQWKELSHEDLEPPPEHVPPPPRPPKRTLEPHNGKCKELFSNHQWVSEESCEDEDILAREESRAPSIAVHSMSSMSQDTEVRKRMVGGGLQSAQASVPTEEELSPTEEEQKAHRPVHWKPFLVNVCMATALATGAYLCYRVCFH

Rattus norvegicus [4] = assay: Antihyperglycemic activity in sucrose-challenged streptozotocin-induced Rattus norvegicus Wistar albino (rat) diabetic model assessed as glucose reduction at 30 mg/kg measured at 5 hr relative to control; assay type: functional; set-up: scale not given: the % may be the effect or the level left
[5] = biological target: T2, Tyrosine-protein phosphatase non-receptor type 1 (Rattus norvegicus); assay: Ratio of metformin activity to compound activity for inhibition of PTP1B in Rattus norvegicus (rat) L6 cells; assay type: cell-based
[6] = biological target: T2, Tyrosine-protein phosphatase non-receptor type 1 (Rattus norvegicus); assay: Inhibition of PTP1B in Rattus norvegicus (rat) L6 cells assessed as cellular 2-deoxy-D-[U-14C]glucose uptake at 10 to 50 uM after 18 hr relative to control; assay type: cell-based
Rattus norvegicus [7] = assay: Antihyperglycemic activity in sucrose-loaded Rattus norvegicus Wistar albino (rat) diabetic model assessed as glucose reduction at 30 mg/kg measured at 5 hr relative to control; assay type: functional; set-up: scale not given: the % may be the effect or the level left
Rattus norvegicus [8] = assay: Antihyperglycemic activity in sucrose-loaded Rattus norvegicus Wistar albino (rat) diabetic model assessed as glucose reduction at 30 mg/kg measured at 24 hr relative to control; assay type: functional; set-up: scale not given: the % may be the effect or the level left
[9] = biological target: T2, Tyrosine-protein phosphatase non-receptor type 1 (Rattus norvegicus); assay: Inhibition of PTP1B in Rattus norvegicus (rat) L6 cells assessed as cellular 2-deoxy-D-[U-14C]glucose uptake at 500 uM after 18 hr relative to control; assay type: cell-based

Structure (SMILES)	Activity (Rattus norvegicus [1])	inhibition [2]	Ratio [3]	Activity (Rattus norvegicus [4])	Ratio [5]	inhibition [6]	Activity (Rattus norvegicus [7])	Activity (Rattus norvegicus [8])	inhibition [9]
O=C(CSc1nc2ccccc2[nH]1)Nc1cccc(C(=O)O)c1	45%	24.2%	10	48%	50	18.5%	32%	33%	
Cc1ccc(C(=O)Nc2ccc(S(=O)(=O)O)c3cc(S(=O)(=O)O)cc(S(=O)(=O)O)c23)cc1NC(=O)c1cccc(NC(=O)Nc2cccc(C(=O)Nc3cc(C(=O)Nc4ccc(S(=O)(=O)O)c5cc(S(=O)(=O)O)cc(S(=O)(=O)O)c45)ccc3C)c2)c1		20%							
CN(C)C(=N)NC(=N)N [METFORMIN]	17%			18%			13%	17%	30.2%
CN(CCOc1ccc(CC2SC(=O)NC2=O)cc1)c1ccccn1 (stereo not drawn) [ROSIGLITAZONE]	24%			21%			23%	26%	
